Experimental data: patent US20240350489A1, “LOU064 FOR TREATING MULTIPLE SCLEROSIS” (NOVARTIS AG, priority 2021, published 2024)
Entries after “also recorded” stand apart in the source; their conditions may differ.

Assays:
[1] = Phase 2b dose range finding core study in CSU subjects, safety; details: for overall tolerability / safety profile: whole dose range
Protocol: In a Phase 2b, randomized, double-blind, placebo-controlled trial evaluating the efficacy and safety of LOU064 over 12 weeks in patients inadequately controlled by Hi-antihistamines, with at least moderately active CSU, patients received LOU064 10 mg q.d. (once daily), 35 mg q.d., 100 mg q.d., 10 mg b.i.d. (twice daily), 25 mg b.i.d., 100 mg b.i.d., or placebo (1:1:1:1:1:1:1 ratio).
In a dose range finding study conducted in CSU subjects the following doses are being tested: 10, 35 and 100 mg q.d. as well as 10, 25 and 100 mg b.i.d. and placebo over 12 weeks.

[2] = test system: RatMOG-induced EAE; assay: RatMOG-induced EAE, b.i.d. dosing until study end; type: in vivo
Protocol: Dosing of LOU064 was initiated 4 hours prior to MOG/CFA immunization and continued twice daily until study end.

[3] = Co-administration with oral contraceptives; type: in vivo; details: co-administered ethinylestradiol or levonorgestrel
[4] = single/multiple doses 0.5 mg to 600 mg up to 18 days; 100 and 200 mg b.i.d.; cited from earlier work
[5] = test system: B-cell and CD4+ T-cell populations; assay: Ex vivo analysis of B-cell and CD4+ T-cell populations, HumanMOG EAE; parameters: species or system mouse; details: dosed in vivo b.i.d.
Description: Prophylactic LOU064 (b.i.d.) treatment during HumanMOG EAE reduces Th17 cells. […] Group sizes n=5 per treatment. Statistical significance (ANOVA with Dunnett's test) is shown as *p<0.05.

[6] = test system: MOG-specific immunoglobulin responses; assay: MOG-specific immunoglobulin responses in serum, HumanMOG EAE; type: in vivo, mouse; details: oral b.i.d. treatment
Description: In the HumanMOG-induced EAE model the (auto)antibody response is weakly pathogenic.

[7] = target: T1, BTK (Homo sapiens, UniProt Q06187); assay: BTK occupancy in blood as biomarker for dose selection; type: in vivo; details: low doses
T1 construct: simulate BTK occupancy in human spleen/tissues across a range of doses; from tissue; host or cells: human spleen / peripheral tissues (simulated, not sampled)
Description: BTK occupancy in blood is not an informative biomarker for the purpose of dose selection due to LOU064 pharmacological properties (irreversible binding). […] Occupancy in tissue may be more representative of the efficacy of LOU064.

[8] = core study, any LOU064 dose, listed as remibrutinib

T1 sequence (Q06187 whole entry): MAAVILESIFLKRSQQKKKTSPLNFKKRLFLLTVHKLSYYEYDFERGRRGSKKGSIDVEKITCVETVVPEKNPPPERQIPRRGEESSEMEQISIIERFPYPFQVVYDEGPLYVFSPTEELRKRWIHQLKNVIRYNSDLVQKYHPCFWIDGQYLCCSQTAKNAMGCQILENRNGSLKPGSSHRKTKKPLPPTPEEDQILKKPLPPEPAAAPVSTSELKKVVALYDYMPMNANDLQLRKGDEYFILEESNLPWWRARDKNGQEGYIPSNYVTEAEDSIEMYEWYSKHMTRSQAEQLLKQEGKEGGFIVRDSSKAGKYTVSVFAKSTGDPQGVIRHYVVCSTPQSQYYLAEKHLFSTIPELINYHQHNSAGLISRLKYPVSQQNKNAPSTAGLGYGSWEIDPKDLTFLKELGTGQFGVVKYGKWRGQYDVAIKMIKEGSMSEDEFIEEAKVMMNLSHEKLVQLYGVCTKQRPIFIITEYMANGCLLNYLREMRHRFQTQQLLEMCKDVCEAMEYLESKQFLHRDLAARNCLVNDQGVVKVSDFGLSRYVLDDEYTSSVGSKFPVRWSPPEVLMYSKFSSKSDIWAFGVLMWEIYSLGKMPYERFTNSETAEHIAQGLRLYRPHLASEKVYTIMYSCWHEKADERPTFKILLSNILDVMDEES

## C=CC(=O)N(C)CCOc1c(N)ncnc1-c1cc(F)cc(NC(=O)c2ccc(C3CC3)cc2F)c1C [LOU064, N-(3-(6-amino-5-(2-(N-methylacrylamido)ethoxy)pyrimidin-4-yl)-5-fluoro-2-methylphenyl)-4-cyclopropyl-2-fluorobenzamide]
[1]; 10 mg q.d., Week 8, after starting a ketogenic diet
  Grade 3 creatinine elevation, patients: One
[1]; 35 mg q.d., Week 12
  Grade 3 neutrophil count decrease: one
[1]; 100 mg q.d., Week 8
  Grade 3 alanine transaminase elevation: one
[1]; core study
  deaths: no deaths
  laboratory findings, including blood cell counts: no significant laboratory findings
[1]; [8]
  AE Headache (PT): 9.7%
  AE Infections and infestations (SOC): 24.0%
  AE Skin and subcutaneous tissue disorders (SOC): 16.9%
[1]; core study, in total
  Common Terminology Criteria for AEs Grade 3 events (laboratory data): three
[1]; core study, normalised on treatment
  patients with ALT>5xULN: 1 patient
[1]
  overall tolerability / safety profile: well-tolerated across the whole dose range
[1]; listed as Remibrutinib
  overall tolerability / safety profile: favorable safety profile across the whole dose range
[2]; 30 mg/kg b.i.d.
  tolerability: well tolerated in all mice
[2]; 30 mg/kg b.i.d., p value=0.013
  cumulative disease burden: significantly reduced
[2]; 30 mg/kg b.i.d., p value=0.018
  disease incidence and time of EAE onset: reduction in the incidence of EAE and a delayed onset; also recorded: significantly reduced disease incidence
[2]; 30 mg/kg p.o. b.i.d.
  clinical symptoms of EAE / EAE scores: inhibited inflammation-induced clinical symptoms of EAE and cachexia; also recorded: efficacious at reducing the severity of RatMOG-induced EAE; also recorded: improvement in EAE scores
  daily body weight changes (cachexia): significantly reduced
[3]
  impact on exposure and efficacy of oral contraceptives: without a major impact on their exposure and efficacy
[4]
  short-term safety: has been shown in Phase I clinical studies
[5]
  Th1 and Tregs: unchanged; also recorded: No changes were observed
  Th17 (IL-17+) cells: reduced; also recorded: significant reduction
  frequencies of B-cell populations: no significant changes in total B-cell populations
  total CD4+ T-cell population: unchanged
[6]
  MOG-specific IgG2c: No change was detected
  MOG-specific IgM and IgG responses in serum: significantly reduced
[7]
  BTK occupancy in blood: reaches full occupancy even at low doses
